Measured values as given in PubChem BioAssay (NCI).
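Method: 48-hour compound exposure of cells in 96-well plates, five concentrations, linear interpolation of endpoints. GI50 = concentration required for 50% inhibition of growth. Definition used: TGI = concentration required for complete inhibition of growth.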

What was measured:
Test in all cases: DTP human tumour cell line panel, 48 h
[1] = tested on: MOLT-4 leukemia
[2] = tested on: NCI/ADR-RES ovarian
[3] = tested on: HOP-62 NSCLC
[4] = tested on: PC-3 prostate
[5] = tested on: MDA-MB-231 breast
[6] = tested on: LOX IMVI melanoma
[7] = tested on: BT-549 breast
[8] = tested on: CCRF-CEM leukemia
[9] = tested on: MALME-3M melanoma
[10] = tested on: MDA-MB-435

| Compound | GI50 [1] | TGI [1] | GI50 [2] | TGI [2] | GI50 [3] | TGI [3] | GI50 [4] | TGI [4] | GI50 [5] | TGI [5] | GI50 [6] | TGI [6] | GI50 [7] | TGI [7] | GI50 [8] | TGI [8] | GI50 [9] | TGI [9] | GI50 [10] | TGI [10] |
| --- | --- | --- | --- | --- | --- | --- | --- | --- | --- | --- | --- | --- | --- | --- | --- | --- | --- | --- | --- | --- |
| Nc1nc(=O)n([C@@H]2CS[C@H](CO)O2)cc1F | > 100 µM | > 100 µM | > 100 µM | > 100 µM | > 100 µM | > 100 µM | > 100 µM | > 100 µM | > 100 µM | > 100 µM | > 100 µM | > 100 µM | > 100 µM | > 100 µM | > 100 µM | > 100 µM | > 100 µM | > 100 µM | > 100 µM | > 100 µM |
| CCOC(=O)c1cnn2c3ccccc3n(S(=O)(=O)c3ccc(OC)cc3)c12 | 0.389 µM | > 100 µM | 0.23 µM | 24.5 µM | 0.523 µM | > 100 µM | 0.375 µM | > 100 µM | 0.889 µM | > 100 µM | 0.496 µM | > 61 µM | 0.34 µM | 13.1 µM | 0.257 µM | > 100 µM | 0.598 µM | > 100 µM | 0.0473 µM | > 100 µM |
| Cc1cc(Nc2cc(N3CCN(C)CC3)nc(Sc3ccc(NC(=O)C4CC4)cc3)n2)n[nH]1 | 4.21 µM | > 10 µM | > 10 µM | > 10 µM | 2.99 µM | > 10 µM | 4.24 µM | > 10 µM | 3.98 µM | > 10 µM | 0.424 µM | 3.87 µM | 5.89 µM | > 10 µM | 0.00613 µM | > 10 µM | 4.85 µM | > 10 µM | 2.11 µM | > 10 µM |
| Nc1nc(N)c2cc(Sc3cccc(C(F)(F)F)c3)ccc2n1 |  | 6.08 µM |  | 14.8 µM |  | 15.9 µM | 0.698 µM | 14.9 µM |  | 7.14 µM | 0.307 µM | 1.82 µM |  | 20.5 µM |  | 15.3 µM |  | 2.91 µM |  | 5.81 µM |
| COc1cc(/C=C/c2cc(/C=C/c3ccc(O)c(OC)c3)n(C(=O)Nc3ccc(Cl)cc3)n2)ccc1O | 0.374 µM | 3.47 µM | 0.363 µM | 3.68 µM | 0.537 µM | 1.85 µM | 0.497 µM | 5.78 µM | 0.975 µM | 10.7 µM | 0.448 µM | 2.26 µM | 0.885 µM | 3.51 µM | 0.298 µM | > 21.4 µM | 0.76 µM | 3.96 µM | 0.149 µM | 0.392 µM |
| Cc1cccc(NC(=O)/C=C/c2ccc([N+](=O)[O-])cc2)c1 |  | > 65.4 µM |  | > 59.3 µM |  | 33.4 µM |  | 28.6 µM |  | > 52.8 µM |  | > 53 µM |  | > 51.8 µM |  | > 100 µM |  | 66.9 µM |  | > 52.3 µM |
| O=S(=O)(Nc1ccc(F)c(Cl)c1)c1ccc(-c2cnc(C3CC3)o2)cc1 | 0.396 µM | 88.2 µM | 0.252 µM | 8.76 µM | 0.453 µM | 14.4 µM | 0.322 µM | 12.3 µM | 0.727 µM | 11 µM | 0.401 µM | 13.5 µM | 0.577 µM | 9.01 µM | 0.318 µM | 28.9 µM | 0.589 µM | 16.1 µM | 0.0313 µM | 0.187 µM |
| Cc1cnc(Nc2ccc(N3CCN(C)CC3)cc2)nc1Nc1ccc(Cl)c(NS(=O)(=O)C(C)(C)C)c1 | 0.419 µM | 11.6 µM | 0.511 µM | 6.09 µM | 0.262 µM | 3.73 µM | 0.408 µM | 16.9 µM | 0.159 µM | 2.23 µM | 0.169 µM | 0.866 µM | 0.872 µM | 2.59 µM | 0.18 µM | 6.83 µM | 0.69 µM | 2.62 µM | 0.17 µM | 10.7 µM |
| CC1=C[C@H]2C[C@H](C)[C@H]3CC[C@H](C)[C@]4(C1)C(=O)C(O)=C(C)C(=O)[C@@]324 | 16.3 µM | 37.4 µM | 17.2 µM | 48.4 µM | 28.7 µM | 83.6 µM | 18.4 µM | 56 µM | 20.8 µM | 65.7 µM | 22.1 µM | 51.1 µM | 46 µM | > 100 µM | 11.7 µM | 31.5 µM | 23.3 µM | 80.7 µM | 41.1 µM | > 100 µM |
| O=C(Nc1cc(Oc2cc(F)c(NC(=O)C3(C(=O)Nc4ccc(F)cc4)CC3)cc2F)ccn1)C1CC1 | 2.18 µM | 7.1 µM | 2.79 µM | 8.73 µM | 2.76 µM | 8.71 µM | 2.51 µM | 6.85 µM | 2.43 µM | > 100 µM | 2.2 µM | 6.25 µM | 3.07 µM | 7.09 µM | 2.39 µM | 7.59 µM | 0.324 µM | 2.47 µM | 1.53 µM | 4.26 µM |
| COc1cc(-n2ccnc2)cc(OC)c1OC | 42.2 µM | > 100 µM | 34.2 µM | > 100 µM | 31.9 µM | > 100 µM | 50 µM | > 100 µM | 79 µM | > 100 µM | 60.3 µM | > 100 µM | > 100 µM | > 100 µM | 47.6 µM | > 100 µM | 35.1 µM | > 100 µM | 75.6 µM | > 100 µM |
| COc1cccc(/C(C)=N/NC(=O)CSc2nc3ccccc3c(=O)n2CCc2ccc(S(N)(=O)=O)cc2)c1 | 6.5 µM | 40.2 µM | 21.3 µM | > 100 µM | 2.81 µM | 9.63 µM | 3.51 µM | 22.2 µM | 2.23 µM | 5.06 µM | 3.1 µM | 11.7 µM | 2.27 µM | 40.9 µM | 5.31 µM | > 100 µM | 1.98 µM | 4.62 µM | 3.18 µM | 12.6 µM |
| NC(=Nc1ccc(N)cc1)C(N)=Nc1ccc(N)cc1 | 55.5 µM | > 100 µM | > 100 µM | > 100 µM | > 100 µM | > 100 µM | 98.6 µM | > 100 µM | 77.6 µM | > 100 µM | > 100 µM | > 100 µM | > 100 µM | > 100 µM | 45.7 µM | > 100 µM | 45.9 µM | > 100 µM | > 100 µM | > 100 µM |
